In US20220125877A1, “METHOD FOR TREATING COLORECTAL CANCER” (SUN YAT-SEN UNIVERSITY, priority 2019, published 2022):

Experiments:
[1] = tested on: KRAS mutation PDX tumor; assay: PDX model, tumor size and weight; type: in vivo, BALB/c nude mice; details: compared with KRAS wildtype tumor model; 200 mg/kg in water, 30 d, FIG. 7
Procedure: Use of the PDX model: tumor tissues from the clinical KRAS wildtype and mutation CRC patients were taken, the tumor cells were cultured with a digestion process; after identifying the KRAS mutation, the tumor cells were planted in an axillary fossa area of nude mice.
1) Collection of patients' tumor specimens: cancer tissues with non-necrotic edges were taken from specimens obtained after excision, and soaked into a PRMI1640 culture solution containing 5% fetal calf serum, 1×penicillin and streptomycin double-antibodies, and then transported at 4° C.;
2) the tumor tissues were cut into small pieces having a size of about 2×2×2 mm on a super clean bench, and cleaned for 3 times with the above culture solution to remove extravasated blood; […]
7) when the transplanted tumor grew to 100-200 mm^3, the nude mice were administered intragastrically everyday at 9:00 a.m. for consecutive 28 d. […] The size of the transplanted tumor was measured everyday, volume (mm^3)=[length×width^2]/2;
8) the nude mice were killed 30 d layer, and tumor tissues were taken, shoot, measured, embedded and sliced.
200 mg/kg (equivalent to human 1000 mg) metformin was dissolved into water, and respectively taken by KRAS wildtype and mutation animals; then the tumor size was measured; 30 d later, the tumor tissues were killed and weighed.

[2] = tested on: metastatic colorectal cancer (mCRC) patients with T2DM; assay: Retrospective study of OS and PFS of first-line chemotherapy in mCRC patients with T2DM (Kaplan-Meier, stratified Cox proportional hazard model), SYSUCC 2004-2016; type: in vivo, human
Excerpt: General clinical characteristics of the patients, such as, sex, age and body mass index (BMI) and the clinical characteristics affecting mCRC prognosis in the existing research reports (such as, primary tumor site, pathological grading, metastatic site, first-line chemotherapy regimen and KRAS genotype) were collected to exclude confounding factors, thus making the influences of metformin on the overall survival (OS) of the mCRC patients with T2DM and the progression free survival (PFS) of the first-line chemotherapy clear.
GraphPad Prism 7 was used to draw a Kaplan-Meier curve, and Log-rank (Mantel-Cox) statistical analysis was performed; stratified HR was additionally used to make a statistics on the influences on OS and PFS between different hypoglycemic agents use and the without anti-diabetic treatments.
A stratified Cox proportional hazard model was used for stratification on the above collected clinical characteristics to explore the individual factors influencing the efficacy of metformin.
After through the proportional hazard assumption, it is further assumed that sex, age, BMI, primary tumor site, pathological grading, metastatic site, and KRAS genotype may serve as confounding factors to make an impact on the anti-tumor effect of metformin. Therefore, hierarchical regression analysis was performed on the above clinical characteristics, thus determining the individual difference interacting with metformin.

[3] = tested on: KRAS wildtype colorectal cancer cells; assay: Cell viability, metformin with a gradient concentration; type: cell-based, human; details: FIG. 6
Procedure: The cells were inoculated on a plate according to the concentration of 5000 cells/well (48-well plate, 200 μl per well). The cells were treated with different ways according to the experimental requirements, and 10 μl CCK8 solution was added after a period of time. The cells were incubated for 1 h in an incubator; 200 μl supernatant were absorbed into a 96-well ELISA plate to determine OD450 with a microplate reader.
(2) Metformin with a gradient concentration was used in vitro to treat KRAS wildtype colorectal cancer cell lines SW48 and CaCO2, KRAS G13D-mutation colorectal cancer cell lines HCT-116 and LoVo, as well as KRAS G12V-mutation colorectal cancer cell lines SW480 and SW620. In addition, the metformin with a gradient concentration was used to treat the KRAS wildtype colorectal cancer cell line SW48 transfected with KRAS G12V, KRAS G13D and KRAS G12D plasmids.

[4] = tested on: SW48 KRAS (G13D) cell line; assay: Proliferation / cell cycle in CRISPR/Cas9 KRAS (G13D) cells; type: cell-based, human; details: relative to SW48, FIG. 8E
Procedure: 1) The cells were inoculated onto a 6-well plate, and subjected to adherence growth for 12 h, then starvation treatment over the night, and treated with the addition of an agent for 24 h, then the cells were digested and washed for 3 times with PBS and centrifuged to discard supernatant; −20° C. pre-cooled 70% ethanol was added dropwise, and the cells were mixed well by vortex, and immobilized over the night at −20° C.

[5] = tested on: LoVo cell line with knock-down KRAS protein; assay: Cell viability in KRAS knock-down cells; type: cell-based, human; details: relative to LoVo, FIG. 8D
Procedure: 2) LoVo cells were subcultured to a 6-well plate (about 1×10^5/well), when cells were subjected to adherence growth, and the degree of cell fusion was not greater than 50%, fresh culture solution was replaced ahead of 2 h, and 10 μg/mL lentivirus infection enhancer polybrene was added. Multiplicity of Infection (MOI) of LoVo was about 20; lentivirus was added according to the formula: adding amount of lentivirus per well (μl)=MOI×cell population/titer (TU/ml)×1000. The culture solution was replaced after 16-18 h, and 1 μM puromycin was conventionally added for screening the cell line whose RNA stable expression was interfered by KRAS.

[6] = metformin use vs non-metformin use, Age at diagnosis <60 years
[7] = metformin use vs non-metformin use, Age at diagnosis ≥60 years
[8] = metformin use vs non-metformin use, BMI Normal (18.5~23.0)
[9] = metformin use vs non-metformin use, BMI Pre- & obese (>23.0)
[10] = metformin use vs non-metformin use, KRAS genotype Wildtype
[11] = metformin use vs non-metformin use, Metastatic site Liver
[12] = metformin use vs non-metformin use, Metastatic site Multiple sites
[13] = metformin use vs non-metformin use, Moderately differentiated
[14] = metformin use vs non-metformin use, Poorly & un-differentiated
[15] = metformin use vs non-metformin use, Primary site Left colon
[16] = metformin use vs non-metformin use, Primary site Rectum
[17] = metformin use vs non-metformin use, Primary site Right colon
[18] = metformin use vs non-metformin use, Sex: Female
[19] = metformin use vs non-metformin use, Sex: Male
[20] = vs nonusers of hypoglycemic agents, stratified by age at diagnosis, adjusted for sex, BMI, primary site, metastatic site, pathological grading, KRAS genotype

CN(C)C(=N)N=C(N)N [metformin]
tumor size [1]: obviously inhibit
tumor weight [1]: obviously inhibit
overall survival, Kaplan-Meier curve ([2]; KRAS mutation mCRC patients, P<0.001, FIGS. 3A-B): significantly extends
progression free survival of first-line chemotherapy, Kaplan-Meier curve ([2]; KRAS mutation mCRC patients, P<0.01, FIGS. 3A-B): significantly extends
efficacy on OS and PFS, Kaplan-Meier curve ([2]; KRAS wildtype mCRC patients, FIGS. 3C-D): has no efficacy
extension of median survival ([2]; Kaplan-Meier, mCRC patients with T2DM, P=0.022, FIG. 2): 11.3 months
OS HR (95% CI) [2, 6]: 0.869
PFS HR (95% CI) [2, 6]: 1.074
OS HR (95% CI) [2, 7]: 0.596
PFS HR (95% CI) [2, 7]: 0.562
OS HR (95% CI) [2, 8]: 0.582
PFS HR (95% CI) [2, 8]: 0.884
OS HR (95% CI) [2, 9]: 0.702
PFS HR (95% CI) [2, 9]: 0.555
OS HR (95% CI) [2, 10]: 1.487
PFS HR (95% CI) [2, 10]: 1.194
OS HR (95% CI) [2, 11]: 1.151
PFS HR (95% CI) [2, 11]: 0.949
OS HR (95% CI) [2, 12]: 1.008
PFS HR (95% CI) [2, 12]: 0.818
OS HR (95% CI) [2, 13]: 0.676
PFS HR (95% CI) [2, 13]: 0.644
OS HR (95% CI) [2, 14]: 0.629
PFS HR (95% CI) [2, 14]: 0.811
OS HR (95% CI) [2, 15]: 0.982
PFS HR (95% CI) [2, 15]: 0.823
OS HR (95% CI) [2, 16]: 0.475
PFS HR (95% CI) [2, 16]: 0.544
OS HR (95% CI) [2, 17]: 0.729
PFS HR (95% CI) [2, 17]: 0.622
OS HR (95% CI) [2, 18]: 0.944
PFS HR (95% CI) [2, 18]: 0.697
OS HR (95% CI) [2, 19]: 0.673
PFS HR (95% CI) [2, 19]: 0.732
OS HR (95% CI) [2, 20]: 0.356
PFS HR (95% CI) [2, 20]: 0.630
effect on cell viability [3]: has no effect
inhibiting effect on proliferation of tumor cells with cell cycle after KRAS (G13D) mutation [4]: enhances the inhibiting effect
inhibiting effect on cell viability after interference of KRAS (G13D) expression [5]: down-regulate the inhibiting effect
